The nature of data set [1]: Pharmacokinetic experiment in mice after intragastric administration (plasma and lung tissue, LC/MS/MS). It is filed as in vivo. The settings on record: ICR, mouse, intragastric administration at 20 mg/kg; for concentration at 6 h: lung, oral, read-out: Lung tissue drug concentration at 6 h; for half-life: plasma, po. As to the method:
The compounds of the present invention for intragastric administration were dissolved in a suitable solvent to form a clear solution or suspension.
Administration mode and dosage: The compounds of the present invention were administered intragastrically at 10 mg/kg or 20 mg/kg.
Number of animals: 3 ICR mice per group for intragastric administration.
Sample collection: For the intragastric administration group, 100 µL of blood was collected (using pre-heparinized 100 µL Capillary Blood Collection Tubes) from the orbital vein of mice at 0.25 h, 0.5 h, 1 h, 2 h, 4 h, and 6 h after administration and placed in heparin sodium anticoagulant tubes. Mice plasma samples were obtained by centrifugation at 3000 g for 10 minutes within 2 hours. For the intragastric administration group, clean blood was collected at 6-hour time point and then lung tissues were collected.
Sample treatment: Plasma and lung tissue homogenates were subjected to protein precipitation with methanol at a certain ratio, and the supernatant was taken and diluted with 50% methanol-water at a certain ratio for sample loading.
Sample detection: The drug concentration in plasma was detected by the LC/MS/MS method, and the drug-time curve was plotted. Pharmacokinetic parameters (such as T1/2(h)/AUC0-t) were calculated by non-compartmental model statistical moments to describe the pharmacokinetic behavior of the compounds in mice after administration.
Data processing: Pharmacokinetic parameters were calculated by WinNonlin.

The next data set relates to RSV strain A2. Briefly: Antiviral detection test against RSV strain A2 based on ELISA method (Hep-2 cells). The format is cell-based, Respiratory Syncytial Virus. The settings on record: for IC50: RSV A2 virus strain, Hep-2 cells, ELISA OD450; for AK0529 IC50 / IC50 of the compounds of the present invention: ratio of IC50 values against RSV A2 virus strain, control compound AK0529. As to the method: Test Example 1: Antiviral detection test of small molecules against RSV strain A2 based on ELISA method
• Source of cell line: Nanjing Kebai Biotechnology Co., Ltd. • Cell type: human laryngeal carcinoma epithelial cells Hep-2
• 96-well culture plate (Cat.No. 3610, Corning Costar); • Fetal bovine serum (Cat.No. 10099-141, GIBCO); • DMEM medium (Cat.No. 11995500BT, GIBCO); • Envision 2104 microplate reader.
• 1. Day 1: The Hep-2 cells were seeded into a 96-well plate at a density of 1×10^4 cells/well; • 2. Day 2: • A. Compound dilution: The compound in the first well was diluted to 9 µM, and 3-fold gradient dilution was performed, with a total of 10 gradients; • B. The Hep-2 cell plate prepared on Day 1 was taken out from the incubator, the supernatant was discarded, and 100 PFU/well/50 µL of the RSV A2 virus was added to each well. The plate was stood at 37°C in a 5% CO2 incubator for 2 hours, the supernatant was aspirated and discarded, and then 100 µL of the gradient-diluted compound or DMEM maintenance medium containing 2% FBS was added to each well; • 3. Day 5: • A. Add fixative: The gradient-diluted compound or medium was discarded from the wells, and 100 µL/well of fixative (4% paraformaldehyde) was added. The plate was stood at room temperature for 10 minutes, and then was washed once with 250 µL PBS; • B. 100 µL/well of a blocking solution was added, and the plate was incubated at 37°C in a 5% CO2 incubator for 30 minutes; • C. After incubation, the detection antibody (Anti RSV Fpro) was added at 0.3 µg/50 µL/well (6 µg/mL), and the plate was incubated at 37°C in a 5% CO2 incubator for 1 hour; • D. After incubation, the HRP secondary antibody was added (diluted 10,000-fold with 0.2% BSA), and the plate was incubated at 37°C in a 5% CO2 incubator for 1 hour; • E. After incubation, the wells were washed for 4 times with PBST, 250 µL/well, each washing was allowed to stand for 5 minutes, and the liquid in the wells was shaken off after completion of the washing; • F. 100 µL/well of a development solution was added, the plate was incubated at room temperature in the dark for 20 minutes, and 50 µL/well of a reaction termination solution was added. The plate was tapped gently to mix the solutions, and the absorbance at 450 nm was measured using the microplate reader. • 4. Data analysis • Inhibition rate of the compound against the virus = 100% - (SC - CC)/(VC - CC) × 100% • SC: OD450 value of the sample (cells + test compound + virus) • CC: OD450 value of the normal growing cell control (cells) • VC: OD450 value of the virus growth control (cells + virus)
The software Graphpad Prism 6 was used, and the calculation formula XY-analysis/Nonlinear regression (curve fit)/Dose response-Inhibition/log (inhibition) vs. response-Variable slope (four parameters) was adopted to fit the IC50 curve and calculate the IC50 value.

[2] abbreviates: human respiratory syncytial virus.

By IC50 is commonly meant the concentration needed to halve the response being measured. Read a low IC50 as higher potency. As to `Cc1ccc2nc(N3CCS(=O)(=NC4CC4)c4ccccc4C3)nc(N3CC(N)C3)c2c1` (stereo not drawn) [Example 4-76, 4-(4-(3-aminoazetidin-1-yl)-6-methylquinazolin-2-yl)-1-(cyclopropylimino)-2,3,4,5-tetrahydrobenzo[f][1,4]thiazepine-1-oxide], the concentration at 6 h in data set [1] worked out at 28800 ng/g. This molecule also yielded an IC50 in the data set with RSV strain A2 (setting [2]) of under 10 nM. Further, in the data set with RSV strain A2, the “AK0529 IC50 / IC50 of the compounds of the present invention” value (shortened to “AK0529 IC50 / IC50”) is given as “ratio ≥20”.

As usually defined, the half-life is the time in which the quantity being followed falls by half. A high value points to slow decline. With `Cc1ccc2nc(N3CCS(=O)(=NC4CC4)c4ccccc4C3)nc(N3CC4C(N)C4C3)c2c1` (stereo not drawn) [Example 4-8, 4-(4-(6-amino-3-azabicyclo[3.1.0]hexan-3-yl)-6-methylquinazolin-2-yl)-1-(cyclopropylimino)-2,3,4,5-tetrahydro-benzo[f][1,4]thiazepine-1-oxide], in data set [1], the concentration at 6 h was determined as 25300 ng/g and the half-life was 10.8 h.

Regarding `Cc1ccc2nc(N3CCS(=O)(=NC4CC4)c4ccccc4C3)nc(N[C@H]3CNC[C@@H]3F)c2c1` (stereo partly drawn) [Example 4-24, 1-(cyclopropylimino)-4-(4-(((3S,4S)-4-fluoropyrrolidin-3-yl)amino)-6-methylquinazolin-2-yl)-2,3,4,5-tetrahydrobenzo[f][1,4]thiazepine-1-oxide], in data set [1], the concentration at 6 h was found to be 15400 ng/g and the half-life was 4.48 h. The IC50 in the data set on RSV strain A2 (setting [2]) is under 10 nM. Moreover, the “AK0529 IC50 / IC50” value in the data set with RSV strain A2 is listed as “ratio ≥20”.

`Cc1ccc2nc(N3CCS(=O)(=NC4CCOC4)c4ccccc4C3)nc(N3CC[C@@H](N)C3)c2c1` (stereo partly drawn) [Example 4-43]: in data set [1], the concentration at 6 h worked out at 19200 ng/g and the half-life is 2.33 h. In addition, in the data set on RSV strain A2 (setting [2]), the IC50 is under 10 nM.

With `N[C@H]1CCN(c2nc(N3CCS(=O)(=NCC4CCO4)c4ccccc4C3)nc3ccc(C(F)F)cc23)C1` (stereo partly drawn) [Example 4-74, 4-(4-((S)-3-aminopyrrolidin-1-yl)-6-(difluoromethyl)quinazolin-2-yl)-1-((oxetan-2-ylmethyl)imino)-2,3,4,5-tetrahydro-benzo[f][1,4]thiazepine-1-oxide], in data set [1], the concentration at 6 h was found to be 7170 ng/g and the half-life was 2.49 h. The molecule further displayed an IC50 with RSV strain A2 (setting [2]) of under 10 nM. Moreover, the “AK0529 IC50 / IC50” value with RSV strain A2 was “ratio ≥20”.

For `NC1CN(c2nc(N3CCS(=O)(=NC4CC4)c4ccccc4C3)nc3ccc(C(F)F)cc23)C1` (stereo not drawn) [Example 4-17, 4-(4-(3-aminoazetidin-1-yl)-6-(difluoromethyl)quinazolin-2-yl)-1-(cyclopropylimino)-2,3,4,5-tetrahydro-benzo[f][1,4]thiazepine-1-oxide], in data set [1], the concentration at 6 h amounted to 75800 ng/g and the half-life is 5.29 h. The molecule also registered an IC50 with RSV strain A2 (setting [2]) of under 10 nM. Besides, the “AK0529 IC50 / IC50” value with RSV strain A2 was “ratio ≥20”.

As for `Cc1ccc2nc(N3CCS(=O)(=NC4CC4)c4ccccc4C3)nc(N3CC[C@@H](N)C3)c2c1` (stereo partly drawn) [Example 4-12], in data set [1], the concentration at 6 h worked out at 29700 ng/g and the half-life is 6.44 h. The IC50 with RSV strain A2 (setting [2]) was under 10 nM.

For `COCC(C)N=S1(=O)CCN(c2nc(N3CC[C@H](N)C3)c3cc(C)ccc3n2)Cc2ccccc21` (stereo partly drawn) [Example 4-69], in data set [1], the concentration at 6 h was determined as 6010 ng/g and the half-life is 2.28 h. In the data set with RSV strain A2 (setting [2]), this molecule gave an IC50 of under 10 nM.

With `N[C@H]1CCN(c2nc(N3CCS(=O)(=NC4CC4)c4ccccc4C3)nc3ccc(C(F)F)cc23)C1` (stereo partly drawn) [Example 4-62, 4-(4-((S)-3-aminopyrrolidin-1-yl)-6-(difluoromethyl)quinazolin-2-yl)-1-(cyclopropylimino)-2,3,4,5-tetrahydro-benzo[f][1,4]thiazepine-1-oxide], the concentration at 6 h in data set [1] was 53100 ng/g. Moreover, the IC50 in the data set with RSV strain A2 (setting [2]) is under 10 nM.

On to `Cc1ccc2nc(N3CCS(=O)(=NC4CCOC4)c4ccccc4C3)nc(N3CC[C@H](N)C3)c2c1` (stereo partly drawn) [Example 4-67], for which, in data set [1], the concentration at 6 h was 8220 ng/g and the half-life is 2.16 h. The molecule also displayed an IC50 in the data set on RSV strain A2 (setting [2]) of under 10 nM.

Consider `Cc1ccc2nc(N3CCS(=O)(=NC4CC4)c4ccccc4C3)nc(NCC3(N)COC3)c2c1C` (stereo not drawn) [Example 4-15, 4-(4-(((3-aminooxetan-3-yl)methyl)amino)-5,6-dimethylquinazolin-2-yl)-1-(cyclopropylimino)-2,3,4,5-tetrahydro-benzo[f][1,4]thiazepine-1-oxide], for which, in data set [1], the concentration at 6 h is 5130 ng/g and the half-life is 1.61 h.

`Cc1ccc2nc(N3CCS(=O)(=NC4CC4)c4ccccc4C3)nc(N3CC(O)(CN)C3)c2c1` (stereo not drawn) [Example 4-2, 4-(4-(3-(aminomethyl)-3-hydroxyazetidin-1-yl)-6-methylquinazolin-2-yl)-1-(cyclopropylimino)-2,3,4,5-tetrahydro-benzo[f][1,4]thiazepine-1-oxide]: the IC50 in the data set with RSV strain A2 (setting [2]) is under 10 nM.

Regarding `Cc1ccc2nc(N3CCS(=O)(=NC4CC4)c4ccccc4C3)nc(N3CC(CN)C3)c2c1` (stereo not drawn) [Example 4-9, 4-(4-(3-(aminomethyl)azetidin-1-yl)-6-methylquinazolin-2-yl)-1-(cyclopropylimino)-2,3,4,5-tetrahydro-benzo[f][1,4]thiazepine-1-oxide], in data set [1], the concentration at 6 h worked out at 5920 ng/g and the half-life is 6.21 h. In the data set with RSV strain A2 (setting [2]), the IC50 was under 10 nM.

Consider “4-(4-(((3-aminooxetan-3-yl)methyl)amino)-6-methylquinazolin-2-yl)-1-((deuteromethyl)imino)-2,3,4,5-tetrahydro-1H-1λ^4-benzo[f][1,4]thiazepine-1-oxide [Example 2-24]”, for which, in the data set with RSV strain A2, the IC50 is under 10 nM and the “AK0529 IC50 / IC50” value is on record as “ratio ≥20”.

In turn, `N[C@H]1CCN(c2nc(N3CCS(=O)(=NCCCO)c4ccccc4C3)nc3ccc(C(F)F)cc23)C1` (stereo partly drawn) [Example 4-66] returned an IC50 in the data set on RSV strain A2 (setting [2]) of under 10 nM.

Consider `NC1(CNc2nc(N3CCS(=O)(=NC4CCC4)c4ccccc4C3)nc3ccc(C(F)F)cc23)COC1` (stereo not drawn) [Example 4-16, 4-(4-(((3-aminooxetan-3-yl)methyl)amino)-6-(difluoromethyl)quinazolin-2-yl)-1-(cyclobutylimino)-2,3,4,5-tetrahydro-benzo[f][1,4]thiazepine-1-oxide], for which the IC50 in the data set on RSV strain A2 (setting [2]) was under 10 nM. Also, the “AK0529 IC50 / IC50” value with RSV strain A2 is on record as “ratio ≥20”.

(Values after patent publication EP4745139A1, “COMPOUND FOR TREATING AND PREVENTING RESPIRATORY SYNCYTIAL VIRUS INFECTION DISEASES” (CSPC Zhongqi Pharmaceutical Technology (Shijiazhuang) Co., …, priority 2023, dated 2025).)
